In brackets after ≈: the same amount, converted by molar mass. Like-named read-outs stand apart in the source and are kept apart here. No end group written: not given here.
Key:
[1] = system: Candida albicans ATCC 10231; assay: Antimicrobial assay I, modified protocol (tryptic soy broth), MFC; conditions: minimum fungicidal concentration, Table 4
in vitro [2] = type: cell-based, human; conditions: human, human red blood cells
[3] = system: Escherichia coli ATCC 25922; assay: Antimicrobial assay I, modified protocol (tryptic soy broth), MBC; conditions: minimum bactericidal concentration, Table 4
[4] = system: Pseudomonas aeruginosa ATCC 27853; assay: as above; conditions: minimum bactericidal concentration, Table 4
Description: The preparation of all media, stock solutions, and dilutions took place in a laminar flow hood to prevent contamination. Bacterial cells were freshly grown on antibiotic medium 2 agar slants (pH 7.0 at 25° C.). Bacteria were suspended and diluted in antibiotic medium 3 to about 10^4 cfu/ml and used as the inoculum. Sample solutions (100 μl/well) were added to plates according to the plate layout. Inoculum (100 μl/well) was added to achieve a final concentration of 5×10^3 cfu/ml. Negative controls received 100 μl saline and 100 μl growth medium. Positive controls received 100 μl saline and 100 μl inoculum. Bacterial plates were incubated at 37° C. for 24 hours.
However, the data for Table 4 were obtained with a modified protocol wherein the medium was tryptic soy broth, inocolum strength was approximately 10^4 CFU per ml, and values determined were minimum bactericidal concentrations (MBC) or minimum fungicidal concentrations (MFC).
MBC or MFC values are in μg/mL. E. coli is Escherichia coli ATCC accession number 25922; P. aerug is Pseudomonas aeruginosa ATCC accession number 27853, S. aur. is Stapholococcus aureus ATCC accession number 25923; Candida is Candida albicans ATCC accession number 10231.

in vitro [5] = conditions: human, WI38 normal lung fibroblast cells, WI-38 LD50, Table 26, valine substitution
[6] = system: Stapholococcus aureus ATCC 25923; assay: Antimicrobial assay I, modified protocol (tryptic soy broth), MBC; conditions: minimum bactericidal concentration, Table 4
[7] = system: Pseudomonas aeruginosa ATCC 9027; assay: Antimicrobial assay I, MIC by OD measurement; type: cell-based
WI38 = conditions: Table 27
[8] = pH 7, Table 26, valine substitution, read-out: Hemolysis RBC LD50

Compound	MFC Candida A.10231 [1]	HC50 at 1 h (in vitro [2]; [8])	MBC E. coli A.25922 [3]	MBC P. aerug A.27853 [4]	CC50 at 24 h (in vitro [5])	MBC S. aur A.25923 [6]	HC50 at 1 h (in vitro [2]; pH 7, Table 27, read-out: Hemolysis (LD50))	P. aerug (MIC) [7]	WI38 LD50 (WI38)
FALALKALKKLLKKLKKLAKKAL-NH2 [compound 24]	>50 µg/mL	10 µg/mL	>80 µg/mL	30 µg/mL	55 µg/mL	>40 µg/mL	–	–	–
CC(C)C[C@H](NC(=O)[C@H](C)NC(=O)[C@H](CC(C)C)NC(=O)[C@H](CCCCN)NC(=O)[C@H](C)NC(=O)[C@H](CC(C)C)NC(=O)[C@H](CCCCN)NC(=O)[C@H](CCCCN)NC(=O)[C@H](C)NC(=O)[C@H](CC(C)C)NC(=O)[C@H](CCCCN)NC(=O)[C@H](C)NC(=O)[C@H](CC(C)C)NC(=O)[C@H](CCCCN)NC(=O)[C@H](CCCCN)NC(=O)[C@H](C)NC(=O)[C@@H](N)Cc1ccccc1)C(N)=O [compound 35]	>40 µg/mL	150 µg/mL	8 µg/mL (≈ 4.31 µM)	8 µg/mL (≈ 4.31 µM)	25 µg/mL (≈ 13.5 µM)	10 µg/mL (≈ 5.39 µM)	100 µg/mL	200 µg/mL	25 µg/mL
VALALKALKKALKKLKKALKKAL-NH2 [compound 30]	>50 µg/mL	150 µg/mL	10 µg/mL	15 µg/mL	93 µg/mL	40 µg/mL	–	–	–
CC(C)C[C@H](NC(=O)[C@H](CC(C)C)NC(=O)[C@H](CCCCN)NC(=O)[C@H](CCCCN)NC(=O)[C@H](C)NC(=O)[C@H](C)NC(=O)[C@H](CC(C)C)NC(=O)[C@H](CCCCN)NC(=O)[C@H](CC(C)C)NC(=O)[C@H](CC(C)C)NC(=O)[C@H](CCCCN)NC(=O)[C@H](C)NC(=O)[C@@H](N)Cc1ccccc1)C(N)=O [compound 56]	30 µg/mL (≈ 20.6 µM)	–	50 µg/mL (≈ 34.3 µM)	10 µg/mL (≈ 6.87 µM)	–	55 µg/mL (≈ 37.8 µM)	–	–	–
CC(C)C[C@H](NC(=O)[C@H](CCCCN)NC(=O)[C@H](CCCCN)NC(=O)[C@H](Cc1c[nH]c2ccccc12)NC(=O)[C@@H](N)CCCCN)C(=O)N[C@@H](C)C(=O)N[C@@H](CCCCN)C(=O)N[C@@H](CCCCN)C(=O)N[C@@H](Cc1c[nH]c2ccccc12)C(N)=O [compound 161]	25 µg/mL (≈ 20.6 µM)	–	150 µg/mL (≈ 124 µM)	>250 µg/mL	–	>250 µg/mL	–	–	–
FALKALKK-NH2 [compound 145]	100 µg/mL	–	INACT	INACT	–	INACT	–	–	–
CC(C)C[C@H](NC(=O)[C@H](C)NC(=O)[C@H](CCCCN)NC(=O)[C@H](CCCCN)NC(=O)[C@H](C)NC(=O)[C@H](CC(C)C)NC(=O)[C@H](CCCCN)NC(=O)[C@H](C)NC(=O)[C@H](CC(C)C)NC(=O)[C@H](CC(C)C)NC(=O)[C@H](CCCCN)NC(=O)[C@H](C)NC(=O)[C@@H](N)Cc1ccccc1)C(N)=O [compound 54]	30 µg/mL (≈ 21.2 µM)	–	15 µg/mL (≈ 10.6 µM)	40 µg/mL (≈ 28.3 µM)	–	15 µg/mL (≈ 10.6 µM)	–	–	–
CC(C)C[C@H](NC(=O)[C@H](CCCCN)NC(=O)[C@H](Cc1c[nH]c2ccccc12)NC(=O)[C@H](CCCCN)NC(=O)[C@H](CCCCN)NC(=O)[C@H](C)NC(=O)[C@H](CC(C)C)NC(=O)[C@H](CCCCN)NC(=O)[C@H](CCCCN)NC(=O)[C@H](C)NC(=O)[C@H](CC(C)C)NC(=O)[C@H](CCCCN)NC(=O)[C@H](CCCCN)NC(=O)[C@H](CC(C)C)NC(=O)[C@H](CCCCN)NC(=O)[C@H](CCCCN)NC(=O)[C@H](C)NC(=O)[C@H](CC(C)C)NC(=O)[C@H](CCCCN)NC(=O)[C@H](CCCCN)NC(=O)[C@H](C)NC(=O)[C@@H](N)Cc1ccccc1)C(=O)O [compound 72]	>50 µg/mL	–	>50 µg/mL	40 µg/mL (≈ 15.3 µM)	–	>50 µg/mL	–	–	–
CC(C)C[C@H](NC(=O)[C@H](C)NC(=O)[C@H](CC(C)C)NC(=O)[C@H](CCCCN)NC(=O)[C@H](C)NC(=O)[C@H](CC(C)C)NC(=O)[C@H](CCCCN)NC(=O)[C@H](CCCCN)NC(=O)[C@H](C)NC(=O)[C@H](CC(C)C)NC(=O)[C@H](CCCCN)NC(=O)[C@H](CCCCN)NC(=O)[C@H](C)NC(=O)[C@@H](N)Cc1ccccc1)C(N)=O [compound 45]	>50 µg/mL	–	30 µg/mL (≈ 19.5 µM)	40 µg/mL (≈ 25.9 µM)	–	80 µg/mL (≈ 51.9 µM)	–	–	–
CC(C)C[C@H](NC(=O)[C@H](C)NC(=O)[C@H](C)NC(=O)[C@H](CCCCN)NC(=O)[C@H](C)NC(=O)[C@H](CC(C)C)NC(=O)[C@H](CCCCN)NC(=O)[C@H](CCCCN)NC(=O)[C@H](C)NC(=O)[C@H](CC(C)C)NC(=O)[C@H](CCCCN)NC(=O)[C@H](CCCCN)NC(=O)[C@H](C)NC(=O)[C@@H](N)Cc1ccccc1)C(N)=O [compound 76]	>50 µg/mL	–	40 µg/mL (≈ 26.7 µM)	>55 µg/mL	–	>55 µg/mL	–	–	–
CC(C)C[C@H](NC(=O)[C@H](CC(C)C)NC(=O)[C@H](C)NC(=O)[C@H](CCCCN)NC(=O)[C@H](C)NC(=O)[C@H](CC(C)C)NC(=O)[C@H](CCCCN)NC(=O)[C@H](CCCCN)NC(=O)[C@H](C)NC(=O)[C@@H](N)Cc1ccccc1)C(N)=O [compound 58]	>50 µg/mL	–	>50 µg/mL	>50 µg/mL	–	>50 µg/mL	–	–	–
CC(C)C[C@H](NC(=O)[C@H](C)NC(=O)[C@H](CC(C)C)NC(=O)[C@H](C)NC(=O)[C@H](CC(C)C)NC(=O)[C@H](CCCCN)NC(=O)[C@H](C)NC(=O)[C@H](CC(C)C)NC(=O)[C@H](CCCCN)NC(=O)[C@H](CCCCN)NC(=O)[C@H](C)NC(=O)[C@H](CC(C)C)NC(=O)[C@H](CCCCN)NC(=O)[C@H](CCCCN)NC(=O)[C@H](CC(C)C)NC(=O)[C@H](CCCCN)NC(=O)[C@H](CCCCN)NC(=O)[C@H](C)NC(=O)[C@H](CC(C)C)NC(=O)[C@H](CCCCN)NC(=O)[C@H](CCCCN)NC(=O)[C@H](C)NC(=O)[C@@H](N)Cc1ccccc1)C(N)=O [compound 11]	>50 µg/mL	–	40 µg/mL (≈ 15.8 µM)	25 µg/mL (≈ 9.86 µM)	–	25 µg/mL (≈ 9.86 µM)	–	–	–
CC(C)C[C@H](NC(=O)[C@H](CC(C)C)NC(=O)[C@H](CCCCN)NC(=O)[C@H](C)NC(=O)[C@H](CC(C)C)NC(=O)[C@H](C)NC(=O)[C@H](CCCCN)NC(=O)[C@H](CCCCN)NC(=O)[C@H](C)NC(=O)[C@H](CC(C)C)NC(=O)[C@H](CCCCN)NC(=O)[C@H](C)NC(=O)[C@@H](N)CCCCN)C(N)=O [compound 149]	100 µg/mL (≈ 71.7 µM)	–	150 µg/mL (≈ 108 µM)	>250 µg/mL	–	>250 µg/mL	–	–	–
FAKLWAKLAKKL-NH2 [compound 136]	INACT	–	INACT	INACT	–	INACT	–	–	–
FALALKALKKLAKKLKKLAKKAL-NH2 [compound 25]	>50 µg/mL	16 µg/mL	40 µg/mL	30 µg/mL	24 µg/mL	40 µg/mL	–	–	–
FAKLFAKLAKKFAL-NH2 [compound 121]	50 µg/mL	–	INACT	INACT	–	INACT	–	–	–
FAKIIAKIAKIAKKIL-NH2 [compound 139]	INACT	–	INACT	INACT	–	INACT	–	–	–

— US20050209157A1, “Short bioactive peptides and methods for their use” (priority 2001, published 2005)
